Where a SMILES comes first, the peptide text is derived from it. The star is where a group is joined. βNA = c1ccc2cc(N*)ccc2c1
Assays:
[1] = system: Mtb Erdman; parameters: species or system C57BL/6J mice; settings: mouse, in vivo
[2] = system: HeLa cells; assay: Confocal microscopy of TRIM16 puncta in HeLa cells; type: cell-based
Procedure: (§1) High content microscopy with automated image acquisition and quantification was carried out using a Cellomics HCS scanner and iDEV software (Thermo) in 96-well plates (Mandell et al., 2014). Immunofluorescence confocal microscopy was performed using an LSM510 confocal microscope and Zeiss software package. For quantification of puncta or total cell fluorescence, image J was used as described previously (Chauhan et al., 2015). For quantifying cell death, HeLa and derivative cells treated with 15 μM siramesine for 12 h were incubated with 7AAD (BD Pharmingen™; cat #559925) for 30 min and fluorescence of 7AAD bound to nuclear DNA measured in a flow cytometer.

[3] = system: HeLa cells; assay: Cell death by 7AAD nuclear staining, flow cytometry; type: cell-based
Procedure: as §1

[4] = system: HeLa cells; settings: Petersen et al., 2013; cited from earlier work
[5] = system: HEK293 cells with YFP-Gal fusion; assay: YFP-Galectin puncta formation by high content microscopy; type: cell-based; settings: 100 μM, 1h
From the text: Data, means±SD; n=1000 cells per condition; n>3; ANOVA, Tukey's t test vs. control, *p<0.05.**p<0.01.
a) Screen set up. […] Given that the endomembrane damage protection is a highly conserved process, we will use stable (Flp-In) YFP-Gal8 and YFP-Gal9 293A cells. […] In THP-1 cells, we will use endogenous Gal8 and Gal9 responses to lysosomal damage control. […] Quantification of target 1 (Gal8) and target II (Gal9) intracellular objects (Gal8 puncta) will be done by automated HC microscopy on our Cellomics Array Scanner system and processed, as we have recently published^99. We will use in primary tests parameters of 20 fields per well and >500 valid primary objects per well, corresponding to parameters that follow Z values of >0.5^155 in positive controls (100 μM GPN; 2 mM LLOMe) vs. negative controls (DMSO). For secondary tests of positive hits, 49 field/plate will be examined.

[6] = system: primary murine bone marrow-derived macrophages (BMMs); assay: Oxygen consumption rate (Seahorse) in bone marrow-derived macrophages; type: cell-based
[7] = system: THP-1 macrophages; assay: Galectin puncta formation in THP-1 macrophages; type: cell-based; settings: 250 μM, 2h
[8] = system: THP-1 macrophages; assay: Lysosomal damage readouts (cathepsin B activity, LysoTracker Red) in THP-1 macrophages; type: cell-based
[9] = system: AMPK; assay: AMPK activation response in THP-1 macrophages; type: cell-based; settings: cells KD for Gal9
[10] = system: TFEB; assay: High content analysis of TFEB nuclear translocation; type: cell-based; settings: HeLa cells, lysosomal damage
Procedure: as §1

[11] = system: mTOR; assay: S6K1 phosphorylation (mTOR target) immunoblot in HeLa cells; type: cell-based; settings: 1 mM, 2h
Procedure: (§2) Immunoblots and co-IPs assays for endogenous or exogenously expressed proteins were carried out as described previously (Chauhan et al., 2015). For immunoprecipitation experiments with exogenously expressed proteins, 293T cells were transfected with 5 μg of expression constructs by calcium phosphate for 24 h and lysed on ice using NP-40 buffer (Invitrogen) containing protease inhibitor cocktail (Roche, cat #11697498001) and […] (Sigma, cat #93482). Lysates were mixed with antibody (2-3 μg) incubated at 4° C. for 2 h followed by incubation with protein G Dynabeads (Life technologies) for 2 h at 4° C. Beads were washed four times with PBS and then boiled with SDS-PAGE buffer for analysis of interacting protein by Immunoblotting. Input lanes contained 10% of material unless otherwise indicated.

[12] = system: THP-1 cells; assay: Confocal microscopy of TRIM16 puncta in THP-1 cells; type: cell-based; settings: 0.5 mM
Procedure: as §1

[13] = system: HeLa cells; assay: High content microscopy of LC3 and ubiquitin puncta after lysosomal damage; type: cell-based
Procedure: as §1

[14] = system: DEPTOR; assay: DEPTOR levels in extracts of HeLa cells; type: cell-based; settings: 1 mM, 2h
Procedure: as §2

[15] = Blood levels of rapamycin by mass spectrometry in mice on eRAPA chow; settings: 42 ppm eRAPA dose in chow; n=8 animals, mean±SD (±35 ng/ml)

With Nc1c(Br)cc(Br)cc1CN[C@H]1CC[C@H](O)CC1 [ambroxol] as the compound, how does the “effect on Mtb lung CFU in combination with rifampicin” value [1] read?
Its value is “synergism”.

Which results are given for Fc1ccc(-n2cc(CCCCN3CCC4(CC3)OCc3ccccc34)c3ccccc32)cc1 [siramesine]?
TRIM16 puncta formation in HeLa cells [2]: formation of TRIM16 puncta that colocalized with LC3B; sensitivity to cell death in TRIM16KO HeLa cells vs HeLa ([3]; 15 μM, 12 h, 7AAD): increased sensitivity to cell death; cell death in HeLa cells (literature) [4]: can promote cell death

Which “cytoplasmic Galectin puncta formation response” value [5] does the source give for NCC(=O)N[C@@H](Cc1ccccc1)C(=O)Nc1ccc2ccccc2c1 [GPN, Gly-Phe-naphthylamide] (H-Gly-Phe-βNA) here?
Its value is “Gal3, Gal8 and Gal9 give the most robust response”.

What about the “oxygen consumption rate (OCR)” value [6] of the same compound?
The value was “alters”.

Which results are given for CN(C)C(=N)N=C(N)N [metformin]?
Galectin puncta formation [7]: causes Gal3, Gal8, and Gal9 puncta formation; LysoTracker Red stain ([8]; THP-1 macrophages): Reduction; lysosomal cathepsin B activity ([8]; THP-1 macrophages): loss of activity; lysosomal damage ([8]; preliminary studies): causes lysosomal damage; AMPK activation [9]: Gal9-dependent AMPK activation

Which results are given for COC(=O)[C@H](CC(C)C)NC(=O)[C@@H](N)CC(C)C [LLOMe, Leu-Leu-O-Me]?
TFEB translocation to the nucleus [10]: translocated to the nucleus; lysosomal cell death ([3]; HeLa cells): cannot cause significant lysosomal cell death; mTOR activity (S6K1 phosphorylation) [11]: inhibited; TRIM16 puncta formation in leukocytes [12]: morphologically prominent; LC3 response (endogenous LC3B puncta) [13]: consistent LC3 dose response; abundance of ubiquitin puncta ([13]; high content microscopy): Dose-dependent increase; cellular DEPTOR level [14]: increased

For CO[C@H]1C[C@@H]2CC[C@@H](C)[C@@](O)(O2)C(=O)C(=O)N2CCCC[C@H]2C(=O)O[C@H]([C@H](C)C[C@@H]2CC[C@@H](O)[C@H](OC)C2)CC(=O)[C@H](C)/C=C(\C)[C@@H](O)[C@@H](OC)C(=O)[C@H](C)C[C@H](C)/C=C/C=C/C=C/1C [rapamycin], which “blood levels of rapamycin” value [15] is on record?
The value was 205 ng/mL.

Reference: patent publication US12285470B2, “Trim proteins and galectins cooperate and codirect autophagy and are useful in the treatment of autophagy related diseases” (UNM RAINFOREST INNOVATIONS, priority 2016, dated 2025)
